molecular target: T1, human NTSR1 (Homo sapiens, UniProt P30989); assay: radioligand-receptor binding assay, [125I] labeled neurotensin (Eurofins Panlabs); details: [125I] neurotensin 0.02 nM, membranes from NTSR1 expressing HEK-293 cells, 45 minute incubation, Cheng and Prusoff; read-out: NTSR1 binding Ki
T1 construct: host or cells: HEK-293 cells (membrane preparations)
Procedure: Conjugates were assessed in an in vitro assay evaluating binding to NTSR1. A radioligand-receptor binding assay was conducted at Eurofins Panlabs (Taiwan) to determine the affinity of conjugates described herein to NTSR1. The assay measures binding of radiolabeled ligand, [^125I] labeled neurotensin, to human NTSR1 using membrane preparations from NTSR1 expressing HEK-293 cells (Human embryonic kidney cells 293). Membranes were incubated with radiolabeled neurotensin (0.02 nM) in the presence of conjugate/compound starting at a dose of either 100 nM, or 10 nM, using 3× serial dilutions to obtain a 6-pt curve. After a 45 minute incubation, membranes were filtered and washed 3× and counted to determine the remaining [^125I] neurotensin bound to the receptor. IC50 values were determined by a non-linear, least squares regression analysis using MathIQ™ (ID Business Solutions Ltd., UK). The Ki values were calculated using the equation of Cheng and Prusoff (Cheng and Prusoff, Biochem. Pharmacol. 22:3099-3108, 1973) using the observed IC50 of the tested conjugate/compound, the concentration of radioligand employed in the assay, and the historical values for the Kd of the ligand obtained at Eurofins.

T1 sequence (P30989 whole entry): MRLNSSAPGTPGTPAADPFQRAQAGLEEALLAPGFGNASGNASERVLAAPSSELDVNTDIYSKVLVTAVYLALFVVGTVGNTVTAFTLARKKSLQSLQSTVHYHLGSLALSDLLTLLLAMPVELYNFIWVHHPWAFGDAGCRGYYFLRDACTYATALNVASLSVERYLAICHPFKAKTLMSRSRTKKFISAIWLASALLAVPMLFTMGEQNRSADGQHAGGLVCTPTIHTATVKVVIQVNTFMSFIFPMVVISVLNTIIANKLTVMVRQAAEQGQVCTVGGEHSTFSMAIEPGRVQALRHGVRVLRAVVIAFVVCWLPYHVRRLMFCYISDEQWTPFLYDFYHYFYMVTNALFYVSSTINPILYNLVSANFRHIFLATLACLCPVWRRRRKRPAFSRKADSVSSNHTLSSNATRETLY

For `COc1cc2cc(c1Cl)N(C)C(=O)C[C@H](OC(=O)[C@H](C)N(C)C(=O)CCSC1CC(=O)N(CCCNC(=O)CNC(=O)[C@H](CC(C)C)NC(=O)[C@H](Cc3ccccc3)NC(=O)CNC(=O)CCCCCN3C(=O)CC(SCCC(=O)NCCCC[C@H](NC(C)=O)C(=O)N4CCC[C@H]4C(=O)N[C@H](CCCNC(=N)N)C(=O)N[C@@H](CCCNC(=N)N)C(=O)N4CCC[C@H]4C(=O)N[C@@H](Cc4ccc(O)cc4)C(=O)N[C@H](C(=O)N[C@@H](C[Si](C)(C)C)C(=O)O)C4CCCC4)C3=O)C1=O)[C@]1(C)O[C@H]1[C@H](C)[C@@H]1C[C@@](O)(NC(=O)O1)[C@H](OC)/C=C/C=C(\C)C2` (some centres unmarked) [Compound 42], which Ki is on record?
Its Ki is 0.64 nM.

With `CC[C@H](C)[C@H](NC(=O)[C@H](Cc1ccc(O)cc1)NC(=O)[C@@H]1CCCN1C(=O)[C@H](CCCNC(=N)N)NC(=O)[C@@H](CCCNC(=N)N)NC(=O)[C@@H]1CCCN1C(=O)[C@H](CCCCNC(=O)CCSC1CC(=O)N(CCCCCC(=O)NCC(=O)N[C@@H](Cc2ccccc2)C(=O)N[C@@H](CC(C)C)C(=O)NCC(=O)NCCCN2C(=O)CC(SCCC(=O)N(C)[C@@H](C)C(=O)O[C@H]3CC(=O)N(C)c4cc(cc(OC)c4Cl)C/C(C)=C/C=C/[C@@H](OC)[C@@]4(O)C[C@H](OC(=O)N4)[C@@H](C)[C@@H]4O[C@@]34C)C2=O)C1=O)NC(C)=O)C(=O)N[C@@H](C[Si](C)(C)C)C(=O)O` (some centres unmarked) [Compound 38] as the compound, how does the Ki read?
Its Ki is 0.087 nM.

How did the Ki turn out when `CO[C@H]1C(=O)[C@]2(C)[C@@H](OC)C[C@H]3OC[C@@]3(OC(C)=O)[C@H]2[C@H](OC(=O)c2ccccc2)[C@]2(O)C[C@H](OC(=O)[C@H](OC(=O)OCCSSC(C)(C)[C@H](NC(C)=O)C(=O)N3CCC[C@H]3C(=O)N[C@@H](CCCNC(=N)N)C(=O)N[C@@H](CCCNC(=N)N)C(=O)N3CCC[C@H]3C(=O)N[C@@H](Cc3ccc(O)cc3)C(=O)N[C@H](C(=O)N[C@@H](CC(C)C)C(=O)O)C(C)(C)C)[C@@H](NC(=O)OC(C)(C)C)c3ccccc3)C(C)=C1C2(C)C` [Compound 2] was run?
Its Ki is 3.97 nM.

Which Ki does the source give for `CO[C@H]1C(=O)[C@]2(C)[C@@H](OC)C[C@H]3OC[C@@]3(OC(C)=O)[C@H]2[C@H](OC(=O)c2ccccc2)[C@]2(O)C[C@H](OC(=O)[C@H](OC(=O)CNC(=O)[C@H](CC(C)C)NC(=O)[C@H](Cc3ccccc3)NC(=O)CNC(=O)CCCCCN3C(=O)CC(SC(C)(C)[C@H](NC(C)=O)C(=O)N4CCC[C@H]4C(=O)N[C@@H](CCCNC(=N)N)C(=O)N[C@@H](CCCNC(=N)N)C(=O)N4CCC[C@H]4C(=O)N[C@@H](Cc4ccc(O)cc4)C(=O)N[C@H](C(=O)N[C@@H](CC(C)C)C(=O)O)C(C)(C)C)C3=O)[C@@H](NC(=O)OC(C)(C)C)c3ccccc3)C(C)=C1C2(C)C` (some centres unmarked) [Compound 3] here?
Its Ki is 1.64 nM.

`CC[C@H](C)[C@H](NC(=O)[C@H](Cc1ccc(O)c(O)c1)NC(=O)[C@@H]1CCCN1C(=O)[C@H](CCCNC(=N)N)NC(=O)[C@@H](CCCNC(=N)N)NC(=O)[C@@H]1CCCN1C(=O)[C@H](CCCCNC(=O)CCSC1CC(=O)N(CCCCCC(=O)NCC(=O)N[C@@H](Cc2ccccc2)C(=O)N[C@@H](CC(C)C)C(=O)NCC(=O)NCCCN2C(=O)CC(SCCC(=O)N(C)[C@@H](C)C(=O)O[C@H]3CC(=O)N(C)c4cc(cc(OC)c4Cl)C/C(C)=C/C=C/[C@@H](OC)[C@@]4(O)C[C@H](OC(=O)N4)[C@@H](C)[C@@H]4O[C@@]34C)C2=O)C1=O)NC(C)=O)C(=O)N[C@@H](C[Si](C)(C)C)C(=O)O` (some centres unmarked) [Compound 44] was tested. Which Ki did it give?
The Ki was 0.23 nM.

`COc1cc2cc(c1Cl)N(C)C(=O)C[C@H](OC(=O)[C@H](C)N(C)C(=O)CCSC1CC(=O)N(CCCNC(=O)CNC(=O)[C@H](CC(C)C)NC(=O)[C@H](Cc3ccccc3)NC(=O)CNC(=O)CCCCCN3C(=O)CC(SCCC(=O)NCCCC[C@H](NC(C)=O)C(=O)N4CCC[C@H]4C(=O)N[C@@H](CCCCN)C(=O)N[C@@H](CCCCN)C(=O)N4CCC[C@H]4C(=O)N[C@@H](Cc4ccc(O)cc4)C(=O)N[C@@H](C[Si](C)(C)C)C(=O)N[C@@H](C[Si](C)(C)C)C(=O)O)C3=O)C1=O)[C@]1(C)O[C@H]1[C@H](C)[C@@H]1C[C@@](O)(NC(=O)O1)[C@H](OC)/C=C/C=C(\C)C2` (some centres unmarked) [Compound 48] was tested. Which Ki did it give?
The Ki was over 10 nM.

With `CC[C@H](C)[C@H](NC(=O)[C@H](Cc1ccc(Cl)c(Cl)c1)NC(=O)[C@@H]1CCCN1C(=O)[C@H](CCCNC(=N)N)NC(=O)[C@@H](CCCNC(=N)N)NC(=O)[C@@H]1CCCN1C(=O)[C@H](CCCCNC(=O)CCSC1CC(=O)N(CCCCCC(=O)NCC(=O)N[C@@H](Cc2ccccc2)C(=O)N[C@@H](CC(C)C)C(=O)NCC(=O)NCCCN2C(=O)CC(SCCC(=O)N(C)[C@@H](C)C(=O)O[C@H]3CC(=O)N(C)c4cc(cc(OC)c4Cl)C/C(C)=C/C=C/[C@@H](OC)[C@@]4(O)C[C@H](OC(=O)N4)[C@@H](C)[C@@H]4O[C@@]34C)C2=O)C1=O)NC(C)=O)C(=O)N[C@@H](C[Si](C)(C)C)C(=O)O` (some centres unmarked) [Compound 47] as the compound, how does the Ki read?
Its Ki is over 10 nM.

Which Ki does the source give for `COc1cc2cc(c1Cl)N(C)C(=O)C[C@H](OC(=O)[C@H](C)N(C)C(=O)CCSC1CC(=O)N(CCCNC(=O)CNC(=O)[C@H](CC(C)C)NC(=O)[C@H](Cc3ccccc3)NC(=O)CNC(=O)CCCCCN3C(=O)CC(SCCC(=O)NCCCC[C@H](NC(=O)c4ccc(N=[N+]=[N-])cc4)C(=O)N4CCC[C@H]4C(=O)N(C)[C@@H](CCCNC(=N)N)C(=O)N[C@@H](CCCNC(=N)N)C(=O)N4CCC[C@H]4C(=O)N[C@@H](Cc4ccc(O)cc4)C(=O)N[C@H](C(=O)N[C@@H](CC(C)C)C(=O)O)C(C)(C)C)C3=O)C1=O)[C@]1(C)O[C@H]1[C@H](C)[C@@H]1C[C@@](O)(NC(=O)O1)[C@H](OC)/C=C/C=C(\C)C2` (some centres unmarked) [Compound 49] here?
Its Ki is 0.18 nM.

Which Ki does the source give for `COc1cc2cc(c1Cl)N(C)C(=O)C[C@H](OC(=O)[C@H](C)N(C)C(=O)CCSC1CC(=O)N(CCCNC(=O)CNC(=O)[C@H](CC(C)C)NC(=O)[C@H](Cc3ccccc3)NC(=O)CNC(=O)CCCCCN3C(=O)CC(SCCC(=O)NCCCC[C@H](NC(C)=O)C(=O)N4CCC[C@H]4C(=O)N[C@H](CCCNC(=N)N)C(=O)N[C@@H](CCCNC(=N)N)C(=O)N4CCC[C@H]4C(=O)N[C@@H](Cc4ccc(O)cc4)C(=O)N[C@H](C(=O)N[C@@H](C[Si](C)(C)C)C(=O)O)C(C)(C)C)C3=O)C1=O)[C@]1(C)O[C@H]1[C@H](C)[C@@H]1C[C@@](O)(NC(=O)O1)[C@H](OC)/C=C/C=C(\C)C2` (some centres unmarked) [Compound 40] here?
Its Ki is 0.36 nM.

With `CC[C@H](C)[C@H](NC(=O)[C@H](Cc1ccc(OC)c(OC)c1)NC(=O)[C@@H]1CCCN1C(=O)[C@H](CCCNC(=N)N)NC(=O)[C@@H](CCCNC(=N)N)NC(=O)[C@@H]1CCCN1C(=O)[C@H](CCCCNC(=O)CCSC1CC(=O)N(CCCCCC(=O)NCC(=O)N[C@@H](Cc2ccccc2)C(=O)N[C@@H](CC(C)C)C(=O)NCC(=O)NCCCN2C(=O)CC(SCCC(=O)N(C)[C@@H](C)C(=O)O[C@H]3CC(=O)N(C)c4cc(cc(OC)c4Cl)C/C(C)=C/C=C/[C@@H](OC)[C@@]4(O)C[C@H](OC(=O)N4)[C@@H](C)[C@@H]4O[C@@]34C)C2=O)C1=O)NC(C)=O)C(=O)N[C@@H](C[Si](C)(C)C)C(=O)O` (some centres unmarked) [Compound 46] as the compound, how does the Ki read?
The Ki was over 10 nM.

How did the Ki turn out when `CC[C@H](C)[C@H](NC(=O)[C@@H](Cc1ccc(O)cc1)NC(=O)[C@@H]1CCCN1C(=O)[C@H](CCCNC(=N)N)NC(=O)[C@@H](CCCNC(=N)N)NC(=O)[C@@H]1CCCN1C(=O)[C@H](CCCCNC(=O)CCSC1CC(=O)N(CCCCCC(=O)NCC(=O)N[C@@H](Cc2ccccc2)C(=O)N[C@@H](CC(C)C)C(=O)NCC(=O)NCCCN2C(=O)CC(SCCC(=O)N(C)[C@@H](C)C(=O)O[C@H]3CC(=O)N(C)c4cc(cc(OC)c4Cl)C/C(C)=C/C=C/[C@@H](OC)[C@@]4(O)C[C@H](OC(=O)N4)[C@@H](C)[C@@H]4O[C@@]34C)C2=O)C1=O)NC(C)=O)C(=O)N[C@@H](C[Si](C)(C)C)C(=O)O` (some centres unmarked) [Compound 45] was run?
Its Ki is over 10 nM.

With `CC[C@H](C)[C@H](NC(=O)[C@H](Cc1c[nH]c2ccccc12)NC(=O)[C@@H]1CCCN1C(=O)[C@H](CCCNC(=N)N)NC(=O)[C@@H](CCCNC(=N)N)NC(=O)[C@@H]1CCCN1C(=O)[C@H](CCCCNC(=O)CCSC1CC(=O)N(CCCCCC(=O)NCC(=O)N[C@@H](Cc2ccccc2)C(=O)N[C@@H](CC(C)C)C(=O)NCC(=O)NCCCN2C(=O)CC(SCCC(=O)N(C)[C@@H](C)C(=O)O[C@H]3CC(=O)N(C)c4cc(cc(OC)c4Cl)C/C(C)=C/C=C/[C@@H](OC)[C@@]4(O)C[C@H](OC(=O)N4)[C@@H](C)[C@@H]4O[C@@]34C)C2=O)C1=O)NC(C)=O)C(=O)N[C@@H](C[Si](C)(C)C)C(=O)O` (some centres unmarked) [Compound 43] as the compound, how does the Ki read?
Its Ki is 1.31 nM.

For `COc1cc2cc(c1Cl)N(C)C(=O)C[C@H](OC(=O)[C@H](C)N(C)C(=O)CCSC1CC(=O)N(CCCNC(=O)CNC(=O)[C@H](CC(C)C)NC(=O)[C@H](Cc3ccccc3)NC(=O)CNC(=O)CCCCCN3C(=O)CC(SCCC(=O)NCCCC[C@H](NC(C)=O)C(=O)N4CCC[C@H]4C(=O)N[C@H](CCCNC(=N)N)C(=O)N[C@@H](CCCNC(=N)N)C(=O)N4CCC[C@H]4C(=O)N[C@@H](Cc4ccc(O)cc4)C(=O)N[C@H](C(=O)N[C@@H](C[Si](C)(C)C)C(=O)O)C4CCCCC4)C3=O)C1=O)[C@]1(C)O[C@H]1[C@H](C)[C@@H]1C[C@@](O)(NC(=O)O1)[C@H](OC)/C=C/C=C(\C)C2` (some centres unmarked) [Compound 41], which Ki is on record?
The Ki was 0.89 nM.

`COc1cc2cc(c1Cl)N(C)C(=O)C[C@H](OC(=O)[C@H](C)N(C)C(=O)CCSC1CC(=O)N(CCCNC(=O)CNC(=O)[C@H](CC(C)C)NC(=O)[C@H](Cc3ccccc3)NC(=O)CNC(=O)CCCCCN3C(=O)CC(SCCC(=O)NCCCC[C@H](NC(C)=O)C(=O)N4CCC[C@H]4C(=O)N[C@H](CCCNC(=N)N)C(=O)N[C@@H](CCCNC(=N)N)C(=O)N4CCC[C@H]4C(=O)N[C@@H](Cc4ccc(O)cc4)C(=O)N[C@H](C(=O)N[C@@H](C[Si](C)(C)C)C(=O)O)[C@@H](C)OC)C3=O)C1=O)[C@]1(C)O[C@H]1[C@H](C)[C@@H]1C[C@@](O)(NC(=O)O1)[C@H](OC)/C=C/C=C(\C)C2` (some centres unmarked) [Compound 39] was tested. Which Ki did it give?
The Ki was 0.8 nM.
